Assay results: ChEMBL document CHEMBL1201862, “PubChem BioAssay data set” (2004)
Blank lines part the entries; values can stand above or below the compound they belong to. Active and inactive are the calls of the source.

How the values were obtained:
[1] = target: Voltage-dependent T-type calcium channel subunit alpha-1H (Homo sapiens, UniProt O95180); assay: human CACNA1H calcium influx blockade – cell-based, synthetic library set 1, calcium flux (AID 493022); type: functional
[2] = NIH/3T3 cell viability loss – mouse embryonic fibroblasts, dry powder, set 2, cytotoxicity control, dose response (AID 493247); type: functional, cell-based; conditions: Fibroblast
[3] = target: Voltage-gated N-type calcium channel alpha-1B subunit/Amyloid beta A4 precursor protein-binding family A member 1 (Homo sapiens, UniProt Q00975+Q02410); assay: disruptors of Mint-PDZ/N-type channel peptide interaction – biochemical, HTRF, set 2, SAR follow-up (AID 434980); type: functional
[4] = Cytotoxicity screening for potential Inhibitors of Bacterial Capsule Biogenesis. [Related pubchem assays (depositor defined):AID488970]; type: functional
[5] = target: T1, Scavenger receptor class B member 1 (Mus musculus, UniProt Q61009); assay: mouse SR-BI DiI-HDL uptake blockers – ldlA[mSR-BI] cells, fluorescence, cherry pick, dose response (AID 493194); type: functional, cell-based;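 also: cellular uptake of fluorescent DiI-labeled HDL measured as cell fluorescence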
T1 sequence (Q61009 whole entry): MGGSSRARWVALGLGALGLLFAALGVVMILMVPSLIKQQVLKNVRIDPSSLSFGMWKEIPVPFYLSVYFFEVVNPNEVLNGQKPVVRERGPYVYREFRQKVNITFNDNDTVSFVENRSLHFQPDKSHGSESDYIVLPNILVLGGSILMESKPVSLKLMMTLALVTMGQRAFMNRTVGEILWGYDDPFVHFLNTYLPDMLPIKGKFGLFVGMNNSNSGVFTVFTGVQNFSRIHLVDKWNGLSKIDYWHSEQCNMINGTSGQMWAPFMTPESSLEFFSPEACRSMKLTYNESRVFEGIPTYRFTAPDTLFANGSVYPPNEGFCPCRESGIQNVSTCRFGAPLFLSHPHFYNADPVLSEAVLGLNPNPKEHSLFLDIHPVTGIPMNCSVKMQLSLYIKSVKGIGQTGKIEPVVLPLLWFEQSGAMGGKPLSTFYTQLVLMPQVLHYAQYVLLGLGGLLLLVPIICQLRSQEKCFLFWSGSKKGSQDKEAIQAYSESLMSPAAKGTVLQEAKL

[6] = target: DNA dC->dU-editing enzyme APOBEC-3A (Homo sapiens, UniProt P31941); assay: A3A deaminase inhibition for selectivity – biochemical, dose response (AID 504722); type: functional
[7] = target: DNA dC->dU-editing enzyme APOBEC-3G (Homo sapiens, UniProt Q9HC16); assay: Dose Response confirmation of small molecule APOBEC3G DNA Deaminase Inhibitors via a fluorescence-based single-stranded DNA deaminase assay. [Related pubchem assays (depositor defined):AID493012, AID493028]; type: functional
[8] = Trypanosoma cruzi growth suppression in host cells – NIH3T3 host cells, beta-gal luminescence, confirmation (AID 2044); type: functional, cell-based;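 also: intracellular parasites grown in NIH/3T3 mouse fibroblasts as host cells; luminescent beta-galactosidase reporter signal from transgenic T. cruzi replicating inside host cells; inhibitors lower the luminescence signal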
[9] = target: G-protein coupled receptor 55 (Homo sapiens, UniProt Q9Y2T6); assay: blockers of GPR55 signalling, imaged – imaging, image-based, counter-screen for GPR35 antagonist project, SAR follow-up (AID 2397); type: functional
[10] = target: T2, G-protein coupled receptor 35 (Homo sapiens, UniProt Q9HC97); assay: SAR Analysis for the identification of Selective Antagonists of ERK1/2 Activity in GPR35-Overexpressing U2OS Cells. [Related pubchem assays: 2079, 2058 ]; type: functional, cell-based
[11] = NIH3T3 cell viability loss – ATP luminescence, mouse fibroblasts, counter-screen, dose response (AID 2010); type: functional, cell-based;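 also: cells exposed to compound for about 90 hours before reading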
[12] = target: T2, G-protein coupled receptor 35; assay: inhibition of zaprinast-stimulated GPR35 beta-arrestin translocation – imaging, U2OS, beta-arrestin-GFP, zaprinast agonist, primary screen (AID 2058); type: functional;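 also: antagonist potency meaning inhibition of agonist-induced arrestin redistribution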

T2 sequence (Q9HC97 whole entry): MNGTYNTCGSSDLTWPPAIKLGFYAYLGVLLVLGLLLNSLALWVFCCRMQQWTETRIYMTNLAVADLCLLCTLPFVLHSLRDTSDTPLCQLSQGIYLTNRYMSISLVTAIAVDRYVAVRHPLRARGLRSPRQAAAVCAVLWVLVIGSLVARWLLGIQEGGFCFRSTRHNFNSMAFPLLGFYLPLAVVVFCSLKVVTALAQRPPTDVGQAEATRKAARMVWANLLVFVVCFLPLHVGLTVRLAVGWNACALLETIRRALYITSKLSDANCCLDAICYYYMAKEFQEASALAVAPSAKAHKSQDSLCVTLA
Chain of DNA dC->dU-editing enzyme APOBEC-3G (Q9HC16 whole entry): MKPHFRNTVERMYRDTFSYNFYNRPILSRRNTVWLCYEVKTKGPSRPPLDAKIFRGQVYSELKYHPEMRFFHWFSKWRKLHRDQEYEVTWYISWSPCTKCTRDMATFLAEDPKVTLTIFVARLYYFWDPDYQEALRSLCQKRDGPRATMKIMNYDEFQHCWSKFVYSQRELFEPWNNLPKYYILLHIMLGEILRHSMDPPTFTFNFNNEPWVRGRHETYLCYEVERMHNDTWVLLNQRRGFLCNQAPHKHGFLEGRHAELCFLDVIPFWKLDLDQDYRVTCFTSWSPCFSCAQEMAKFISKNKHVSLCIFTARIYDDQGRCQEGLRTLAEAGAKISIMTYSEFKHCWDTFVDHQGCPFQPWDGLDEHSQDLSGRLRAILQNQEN
Chain of Voltage-gated N-type calcium channel alpha-1B subunit/Amyloid beta A4 precursor protein-binding family A member 1 (Q00975 whole entry): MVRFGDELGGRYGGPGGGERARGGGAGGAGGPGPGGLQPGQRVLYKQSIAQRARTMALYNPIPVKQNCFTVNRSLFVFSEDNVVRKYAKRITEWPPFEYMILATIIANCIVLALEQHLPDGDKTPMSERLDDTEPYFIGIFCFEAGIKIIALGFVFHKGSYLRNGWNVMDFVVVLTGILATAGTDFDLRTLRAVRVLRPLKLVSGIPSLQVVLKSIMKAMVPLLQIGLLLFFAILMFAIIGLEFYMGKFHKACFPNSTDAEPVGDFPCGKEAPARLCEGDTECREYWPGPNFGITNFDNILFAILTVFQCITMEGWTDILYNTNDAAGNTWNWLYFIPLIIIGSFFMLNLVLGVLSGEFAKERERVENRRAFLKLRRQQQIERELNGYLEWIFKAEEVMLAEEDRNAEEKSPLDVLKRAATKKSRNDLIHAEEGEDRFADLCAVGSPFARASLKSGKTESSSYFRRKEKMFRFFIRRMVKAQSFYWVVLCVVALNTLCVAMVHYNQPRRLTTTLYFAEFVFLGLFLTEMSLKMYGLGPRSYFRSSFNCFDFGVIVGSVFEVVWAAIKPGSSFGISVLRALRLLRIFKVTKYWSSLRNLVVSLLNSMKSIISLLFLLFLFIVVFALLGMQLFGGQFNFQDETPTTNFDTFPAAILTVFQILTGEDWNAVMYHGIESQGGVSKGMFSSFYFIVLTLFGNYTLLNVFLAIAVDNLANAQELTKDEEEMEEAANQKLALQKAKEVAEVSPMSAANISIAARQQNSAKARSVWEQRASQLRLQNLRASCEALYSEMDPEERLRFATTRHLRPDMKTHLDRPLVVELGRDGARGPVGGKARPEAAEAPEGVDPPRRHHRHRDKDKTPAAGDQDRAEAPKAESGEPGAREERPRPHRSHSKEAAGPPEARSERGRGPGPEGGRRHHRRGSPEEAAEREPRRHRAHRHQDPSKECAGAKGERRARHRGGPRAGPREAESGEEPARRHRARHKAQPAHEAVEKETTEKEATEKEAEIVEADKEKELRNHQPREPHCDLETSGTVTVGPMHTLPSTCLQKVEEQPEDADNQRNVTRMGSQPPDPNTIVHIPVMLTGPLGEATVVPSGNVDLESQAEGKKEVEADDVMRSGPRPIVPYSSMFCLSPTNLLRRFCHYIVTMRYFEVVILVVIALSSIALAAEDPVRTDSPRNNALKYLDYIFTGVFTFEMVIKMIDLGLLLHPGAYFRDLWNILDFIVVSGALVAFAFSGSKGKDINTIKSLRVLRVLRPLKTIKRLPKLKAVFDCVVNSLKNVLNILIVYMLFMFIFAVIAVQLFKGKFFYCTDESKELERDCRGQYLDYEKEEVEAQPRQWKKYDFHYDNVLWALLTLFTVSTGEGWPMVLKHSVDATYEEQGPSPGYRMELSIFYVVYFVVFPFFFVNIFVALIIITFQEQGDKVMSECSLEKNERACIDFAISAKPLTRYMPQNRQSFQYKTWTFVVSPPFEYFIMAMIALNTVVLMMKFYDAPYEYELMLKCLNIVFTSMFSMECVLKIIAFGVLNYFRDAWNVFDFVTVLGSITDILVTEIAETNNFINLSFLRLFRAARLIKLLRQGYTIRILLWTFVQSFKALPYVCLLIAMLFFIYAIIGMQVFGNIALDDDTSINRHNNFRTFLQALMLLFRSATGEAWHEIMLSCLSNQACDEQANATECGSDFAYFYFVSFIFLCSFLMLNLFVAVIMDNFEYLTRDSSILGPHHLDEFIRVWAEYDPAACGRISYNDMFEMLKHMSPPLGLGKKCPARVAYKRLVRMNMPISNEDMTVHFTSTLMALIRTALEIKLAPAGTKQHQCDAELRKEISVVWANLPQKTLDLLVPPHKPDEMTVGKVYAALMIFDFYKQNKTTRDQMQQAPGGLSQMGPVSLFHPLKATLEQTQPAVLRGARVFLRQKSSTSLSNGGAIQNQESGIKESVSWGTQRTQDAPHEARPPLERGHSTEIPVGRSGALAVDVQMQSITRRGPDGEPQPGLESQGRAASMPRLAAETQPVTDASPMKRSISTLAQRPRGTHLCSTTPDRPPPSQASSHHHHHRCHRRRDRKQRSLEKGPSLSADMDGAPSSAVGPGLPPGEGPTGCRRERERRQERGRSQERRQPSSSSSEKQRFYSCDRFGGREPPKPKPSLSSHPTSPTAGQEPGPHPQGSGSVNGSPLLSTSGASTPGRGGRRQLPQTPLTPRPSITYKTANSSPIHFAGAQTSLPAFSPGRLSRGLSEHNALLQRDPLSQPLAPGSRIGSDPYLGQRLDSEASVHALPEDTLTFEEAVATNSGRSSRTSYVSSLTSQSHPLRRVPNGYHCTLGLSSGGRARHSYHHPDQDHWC
Chain of Voltage-gated N-type calcium channel alpha-1B subunit/Amyloid beta A4 precursor protein-binding family A member 1 (Q02410 whole entry): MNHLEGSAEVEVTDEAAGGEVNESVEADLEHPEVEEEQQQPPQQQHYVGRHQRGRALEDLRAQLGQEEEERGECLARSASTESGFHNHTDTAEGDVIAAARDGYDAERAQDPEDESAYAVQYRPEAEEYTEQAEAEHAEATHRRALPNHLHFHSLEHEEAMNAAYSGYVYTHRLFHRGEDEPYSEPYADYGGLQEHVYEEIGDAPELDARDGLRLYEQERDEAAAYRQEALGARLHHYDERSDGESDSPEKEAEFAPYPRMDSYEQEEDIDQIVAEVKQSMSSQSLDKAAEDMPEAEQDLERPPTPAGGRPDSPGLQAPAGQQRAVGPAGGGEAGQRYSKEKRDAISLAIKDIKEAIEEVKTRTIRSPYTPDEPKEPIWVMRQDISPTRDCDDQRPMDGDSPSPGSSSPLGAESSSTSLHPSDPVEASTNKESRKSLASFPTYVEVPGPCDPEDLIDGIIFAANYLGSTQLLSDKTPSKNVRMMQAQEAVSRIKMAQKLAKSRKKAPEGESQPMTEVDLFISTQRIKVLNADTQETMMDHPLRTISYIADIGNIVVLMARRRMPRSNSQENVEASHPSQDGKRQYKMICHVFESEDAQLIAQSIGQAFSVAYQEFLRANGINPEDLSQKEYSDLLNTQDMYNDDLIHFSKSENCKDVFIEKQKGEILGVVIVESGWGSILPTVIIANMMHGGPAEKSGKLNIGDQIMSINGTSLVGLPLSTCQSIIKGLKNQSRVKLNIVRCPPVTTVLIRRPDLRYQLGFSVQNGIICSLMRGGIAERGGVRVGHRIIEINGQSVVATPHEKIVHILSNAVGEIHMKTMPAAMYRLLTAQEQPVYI
Chain of DNA dC->dU-editing enzyme APOBEC-3A (P31941 whole entry): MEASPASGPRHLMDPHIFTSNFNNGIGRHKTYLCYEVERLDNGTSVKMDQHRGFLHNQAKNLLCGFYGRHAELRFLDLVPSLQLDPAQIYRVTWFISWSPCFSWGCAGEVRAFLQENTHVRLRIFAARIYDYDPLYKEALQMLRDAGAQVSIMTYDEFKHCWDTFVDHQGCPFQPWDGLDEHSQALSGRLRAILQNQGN
Chain of G-protein coupled receptor 55 (Q9Y2T6 whole entry): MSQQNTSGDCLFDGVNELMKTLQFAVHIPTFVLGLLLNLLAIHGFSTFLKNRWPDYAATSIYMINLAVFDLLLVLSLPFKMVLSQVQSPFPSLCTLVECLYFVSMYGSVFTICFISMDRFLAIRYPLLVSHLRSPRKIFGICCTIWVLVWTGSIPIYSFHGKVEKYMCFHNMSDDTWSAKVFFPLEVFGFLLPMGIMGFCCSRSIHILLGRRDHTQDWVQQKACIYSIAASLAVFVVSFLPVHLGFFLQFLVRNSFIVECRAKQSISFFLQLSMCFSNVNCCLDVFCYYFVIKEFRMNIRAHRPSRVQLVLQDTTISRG

EC50 [1]: 10 µM (active)
Compound: O=C(COc1ccc(F)cc1)Nc1nnc(-c2ccc(F)cc2)o1

Compound: COc1cc2c(cc1OC)CN(C(=O)C1CCCN(Cc3ccccc3)C1)CC2 (configuration not stated)
AC50 [2]: 52.7 µM (active)

IC50 [3]: > 56.8 µM (inactive)
Compound: O=C(c1cc(-c2ccco2)nc2ccccc12)N1CCC(N2CCOCC2)CC1

Compound: C=CCOc1ccc(C2c3c(oc4ccccc4c3=O)C(=O)N2CCCN2CCOCC2)cc1 (configuration not stated)
CC50 [4]: > 100 µM (active)

AC50 [5]: 0.092 µM (active)
Compound: Cc1ccccc1CN1CCN(C(=O)c2ccc(S(=O)(=O)NCc3ccco3)cc2)CC1

Compound: Sc1nnc(-c2ccc(Cl)cc2)n1CC1CCCO1 (configuration not stated)
IC50 [6]: > 100 µM (inactive)
IC50 [7]: 6.14 µM (active)

Compound: Cc1ccc(Cn2ncc3c(N4CCN(c5ccccc5C)CC4)ncnc32)cc1
EC50 [8]: 1.6 µM (active)
IC50 [9]: > 32 µM (inactive)
IC50 [10]: 17.7 µM (not active)
EC50 [11]: > 60 µM (not active)
IC50 [12]: 0.761 µM (active)
